Data taken from ChEMBL document CHEMBL2150972, “Hepatitis C virus protease inhibitors: patent highlight” (ACS Med Chem Lett, 2012).

Legend:
Hepatitis C virus [1] = experiment: Antiviral activity against HCV by HCVSPF-CY1B assay; type: functional, organism-based, Hepacivirus hominis
Hepatitis C virus [2] = experiment: Antiviral activity against HCV assessed as inhibition of viral RNA replication by cell based luciferase reporter gene assay; type: functional, organism-based, Hepacivirus hominis

Row | EC50 (Hepatitis C virus [1]) | EC50 (Hepatitis C virus [2]) | SMILES
1 | 34 nM | – | CCOc1cc(O[C@@H]2C[C@H]3C(=O)N[C@]4(C(=O)NS(=O)(=O)C5CC5)C[C@H]4/C=C/CC[C@@H]4CC4[C@H](NC(=O)c4ccn(C)n4)C(=O)N3C2)ccn1 (some centres not stated)
2 | – | 290 nM | O=C(N[C@H]1CCCCC/C=C/[C@@H]2C[C@@]2(C(=O)NS(=O)(=O)C2CC2)NC(=O)[C@@H]2C[C@@H](Oc3ccncc3)CN2C1=O)OCCF
